Data on 31 compounds can be found in patent publication US8173638B2 (Boehringer Ingelheim International GmbH, priority 2006, dated 2012).

Read-outs that look alike come from different tables or passages of the source.

The target in this assay is T1, human CB2R (Homo sapiens, UniProt P34972).
T1 construct: host or cells: CHO cells
Description: CB2R mediated modulation of cAMP synthesis. It is filed as cell-based. The note with it: for Emax: 0.5 h, read-out: Agonist Efficacy (%). The method, boiled down:
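Forskolin (10 uM)-driven cAMP in human CB2R-expressing CHO cells, read with DiscoverX-XS kit after 30 min compound exposure at 37 °C, 1 mM IBMX, 0.25% BSA. 100% defined as forskolin cAMP relative to 1 uM CP55940 inhibition. Agonist EC50 via four-parameter logistic model.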

[1] abbreviates: CHO cells expressing human CB2R, cAMP inhibited by 1 uM CP55940 defined as 100%.

T1 sequence (P34972 whole entry): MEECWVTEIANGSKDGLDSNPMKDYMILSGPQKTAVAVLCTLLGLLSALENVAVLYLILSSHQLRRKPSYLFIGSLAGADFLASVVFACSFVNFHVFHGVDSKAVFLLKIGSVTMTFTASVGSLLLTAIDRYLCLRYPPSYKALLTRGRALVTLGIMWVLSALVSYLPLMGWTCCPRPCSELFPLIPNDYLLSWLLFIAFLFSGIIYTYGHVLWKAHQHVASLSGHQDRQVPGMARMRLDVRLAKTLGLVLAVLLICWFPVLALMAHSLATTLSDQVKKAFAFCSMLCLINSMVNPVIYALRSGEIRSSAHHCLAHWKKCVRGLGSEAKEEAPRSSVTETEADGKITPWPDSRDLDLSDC

In the case of `CC(C)(C)c1cc(NC(=O)N2CCCN(C(=O)c3ccc(Cl)cc3)CC2)no1` [Compound 141, 4-(4-Chloro-benzoyl)-[1,4]diazepane-1-carboxylic acid (5-tert-butyl-isoxazol-3-yl)-amide], the Emax under setting [1] is 101%. Also, the EC50 (read-out: hCB2 cAMP EC50) was found to be 11 nM.

With `CC(C)(C)c1cc(NC(=O)N2CCCN(C(=O)C3CCOCC3)CC2)no1` [Compound 142, 4-(Tetrahydro-pyran-4-carbonyl)-[1,4]diazepane-1-carboxylic acid (5-tert-butyl-isoxazol-3-yl)-amide], the Emax (CHO) was 110%.

`CC(C)(C)c1cc(NC(=O)N2CCCN(C(=O)C3CCC(F)(F)CC3)CC2)no1` [Compound 144, 4-(4,4-Difluoro-cyclohexanecarbonyl)-[1,4]diazepane-1-carboxylic acid (5-tert-butyl-isoxazol-3-yl)-amide] came in with a 50% effective concentration (EC50) of 1.3 nM. Besides, under “CHO”, the Emax turned out to be 98%.

On to `CC(C)(C)c1cc(NC(=O)N2CCCN(C(=O)C3CCCCCC3)CC2)no1` [Compound 152, 4-Cycloheptanecarbonyl-[1,4]diazepane-1-carboxylic acid (5-tert-butyl-isoxazol-3-yl)-amide], for which, under setting [1], the Emax was determined as 104%. For the same compound, the half-maximal effective concentration (EC50) (read-out: hCB2 cAMP EC50) worked out at 19 nM.

With `CC(C)(C)c1cc(NC(=O)N2CCCN(C(=O)C3CCCCC3)CC2)no1` [Compound 153, 4-Cyclohexanecarbonyl-[1,4]diazepane-1-carboxylic acid (5-tert-butyl-isoxazol-3-yl)-amide], the Emax under setting [1] was 104%. Further, the EC50 (read-out: hCB2 cAMP EC50) came out at 3.7 nM.

The compound `CC(C)(C)c1cc(NC(=O)N2CCCN(C(=O)c3ccc(C(F)(F)F)cc3)CC2)no1` [Compound 154, 4-(4-Trifluoromethyl-benzoyl)-[1,4]diazepane-1-carboxylic acid (5-tert-butyl-isoxazol-3-yl)-amide] gave an EC50 of 1.5 nM. Besides, the Emax (CHO) was 103%.

`COC1CCC(C(=O)N2CCCN(C(=O)Nc3cc(C(C)(C)C)on3)CC2)CC1` (stereo not shown) [Compound 155, 4-(4-Methoxy-cyclohexanecarbonyl)-[1,4]diazepane-1-carboxylic acid (5-tert-butyl-isoxazol-3-yl)-amide]: under “CHO”, the Emax was found to be 101%. Further, for the setting “read-out: hCB2 cAMP EC50”, the EC50 came to 110 nM.

On to `CC(=O)NC1CCC(C(=O)N2CCCN(C(=O)Nc3cc(C(C)(C)C)on3)CC2)CC1` (stereo not shown) [Compound 160, 4-(4-Acetylamino-cyclohexanecarbonyl)-[1,4]diazepane-1-carboxylic acid (5-tert-butyl-isoxazol-3-yl)-amide], for which, under setting [1], the Emax is 107%. Further, the EC50 (read-out: hCB2 cAMP EC50) was 68 nM.

As for `O=C(Nc1nc(C2CC2)cs1)N1CCCN(C(=O)c2ccc(Cl)cc2)CC1` [Compound 166, 4-(4-Chloro-benzoyl)-[1,4]diazepane-1-carboxylic acid (4-cyclopropyl-thiazol-2-yl)-amide], the Emax under setting [1] is 91%. The EC50 (read-out: hCB2 cAMP EC50) is 90 nM.

Turning to `O=C(Nc1nc(-c2ccccc2)cs1)N1CCCN(C(=O)c2ccc(Cl)cc2)CC1` [Compound 167, 4-(4-Chloro-benzoyl)-[1,4]diazepane-1-carboxylic acid (4-phenyl-thiazol-2-yl)-amide], under setting [1], the Emax was 102%. Further, where the note is “read-out: hCB2 cAMP EC50”, the EC50 came to 26 nM.

`O=C(Nc1nc2c(s1)CCCC2)N1CCCN(C(=O)c2ccc(Cl)cc2)CC1` [Compound 168, 4-(4-Chloro-benzoyl)-[1,4]diazepane-1-carboxylic acid (4,5,6,7-tetrahydro-benzothiazol-2-yl)-amide]: the Emax under setting [1] amounted to 101%. In addition, the EC50 (read-out: hCB2 cAMP EC50) was determined as 3.6 nM.

As to `Cc1nc(NC(=O)N2CCCN(C(=O)C3CCC(F)(F)CC3)CC2)sc1C(C)(C)C` [Compound 169, 4-(4,4-Difluoro-cyclohexanecarbonyl)-[1,4]diazepane-1-carboxylic acid (5-tert-butyl-4-methyl-thiazol-2-yl)-amide], the Emax under setting [1] was determined as 95%. Moreover, the concentration for a half-maximal effect (EC50) (read-out: hCB2 cAMP EC50) was found to be 0.7 nM.

As for `CC(C)(C)c1cnc(NC(=O)N2CCCN(C(=O)C3CCC(O)CC3)CC2)s1` (stereo not shown) [Compound 173, 4-(4-Hydroxy-cyclohexanecarbonyl)-[1,4]diazepane-1-carboxylic acid (5-tert-butyl-thiazol-2-yl)-amide], under setting [1], the Emax was 111%. The EC50 (read-out: hCB2 cAMP EC50) was determined as 17 nM.

`O=C(Nc1nc(-c2ccccc2)cs1)N1CCCN(C(=O)C2CCC(O)CC2)CC1` (stereo not shown) [Compound 174, 4-(4-Hydroxy-cyclohexanecarbonyl)-[1,4]diazepane-1-carboxylic acid (4-phenyl-thiazol-2-yl)-amide] yielded an EC50 of 43 nM. The Emax (CHO) amounted to 102%.

Turning to `Cc1nc(NC(=O)N2CCCN(C(=O)C3CCOCC3)CC2)sc1C(C)(C)C` [Compound 183, 4-(Tetrahydro-pyran-4-carbonyl)-[1,4]diazepane-1-carboxylic acid (5-tert-butyl-4-methyl-thiazol-2-yl)-amide], under setting [1], the Emax worked out at 100%. Further, the EC50 (read-out: hCB2 cAMP EC50) was determined as 18 nM.

For the compound `Cc1sc(NC(=O)N2CCCN(C(=O)C3CCOCC3)CC2)nc1C(C)(C)C` [Compound 186, 4-(Tetrahydro-pyran-4-carbonyl)-[1,4]diazepane-1-carboxylic acid (4-tert-butyl-5-methyl-thiazol-2-yl)-amide], the Emax under setting [1] is 91%. The EC50 (read-out: hCB2 cAMP EC50) is 58 nM.

Consider `CCC(C)c1cc(NC(=O)N2CCCN(C(=O)C3CCOCC3)CC2)on1` (stereo not shown) [Compound 193, 4-(Tetrahydro-pyran-4-carbonyl)-[1,4]diazepane-1-carboxylic acid (3-sec-butyl-isoxazol-5-yl)-amide], for which the midpoint of the response, the EC50, lay at 41 nM. Besides, the Emax (CHO) turned out to be 106%.

Consider `CCC(C)c1ccc(NC(=O)N2CCCN(C(=O)C3CCOCC3)CC2)nc1` (stereo not shown) [Compound 196, 4-(Tetrahydro-pyran-4-carbonyl)-[1,4]diazepane-1-carboxylic acid (5-sec-butyl-pyridin-2-yl)-amide], for which the Emax under setting [1] stood at 77%. For the same compound, the half-maximal effective concentration (EC50) (read-out: hCB2 cAMP EC50) stood at 47 nM.

`CC(C)(C)c1cc(NC(=O)N2CCCN(C(=O)N3CCCCC3)CC2)no1` [Compound 198, 4-(Piperidine-1-carbonyl)-[1,4]diazepane-1-carboxylic acid (5-tert-butyl-isoxazol-3-yl)-amide]: the EC50 was 47 nM. Moreover, the Emax (CHO) turned out to be 99%.

On to `CC(C)(C)c1cc(NC(=O)N2CCCN(C(=O)N3CCSCC3)CC2)no1` [Compound 203, 4-(Thiomorpholine-4-carbonyl)-[1,4]diazepane-1-carboxylic acid (5-tert-butyl-isoxazol-3-yl)-amide], for which the Emax under setting [1] stood at 107%. Also, for the setting “read-out: hCB2 cAMP EC50”, the EC50 came to 62 nM.

Regarding `CC(C)(C)c1cc(NC(=O)N2CCCN(C(=O)N3CCC(F)(F)CC3)CC2)no1` [Compound 206, 4-(4,4-Difluoro-piperidine-1-carbonyl)-[1,4]diazepane-1-carboxylic acid (5-tert-butyl-isoxazol-3-yl)-amide], it took 16 nM to reach a half-maximal effect (EC50). For the setting “CHO”, the Emax came to 105%.

Consider `CC(C)(C)c1cc(NC(=O)N2CCCN(C(=O)N3CCS(=O)(=O)CC3)CC2)on1` [Compound 211, 4-(1,1-Dioxo-1 λ^6-thiomorpholine-4-carbonyl)-[1,4]diazepane-1-carboxylic acid (3-tert-butyl-isoxazol-5-yl)-amide], for which, under setting [1], the Emax came to 100%. The EC50 (read-out: hCB2 cAMP EC50) turned out to be 95 nM.

`CC(C)(C)c1cc(NC(=O)N2CCCN(C(=O)NC3CCCCC3)CC2)no1` [Compound 212, [1,4]Diazepane-1,4-dicarboxylic acid 1-[(5-tert-butyl-isoxazol-3-yl)-amide] 4-cyclohexylamide]: the half-maximal effective concentration (EC50) was 70 nM. Also, the Emax (CHO) amounted to 102%.

With `CC(C)(C)c1cnc(NC(=O)N2CCCN(C(=O)N3CCS(=O)(=O)CC3)CC2)s1` [Compound 214, 4-(1,1-Dioxo-1 λ^6-thiomorpholine-4-carbonyl)-[1,4]diazepane-1-carboxylic acid (5-tert-butyl-thiazol-2-yl)-amide], the Emax under setting [1] worked out at 95%. For the same compound, the half-maximal effective concentration (EC50) (read-out: hCB2 cAMP EC50) came out at 20 nM.

The compound `CC(C)(C)c1cc(NC(=O)N2CCCN(C(=O)NC3CCCC3)CC2)no1` [Compound 217, [1,4]Diazepane-1,4-dicarboxylic acid 1-[(5-tert-butyl-isoxazol-3-yl)-amide] 4-cyclopentylamide] yielded a half-maximal effective concentration (EC50) of 32 nM. Further, the Emax (CHO) is 100%.

For the compound `CCC(C)c1ccc(NC(=O)N2CCCN(C(=O)N3CCOCC3)CC2)cc1` (stereo not shown) [Compound 218, 4-(Morpholine-4-carbonyl)-[1,4]diazepane-1-carboxylic acid (4-sec-butyl-phenyl)-amide], the Emax under setting [1] was 82%. Besides, the EC50 (read-out: hCB2 cAMP EC50) came to 20 nM.

Consider `CC(C)(C)c1cc(NC(=O)N2CCCN(C(=O)N3CCOCC3)CC2)on1` [Compound 225, 4-(Morpholine-4-carbonyl)-[1,4]diazepane-1-carboxylic acid (3-tert-butyl-isoxazol-5-yl)-amide], for which, under setting [1], the Emax came out at 106%. Further, the EC50 (read-out: hCB2 cAMP EC50) is 54 nM.

For the compound `CC(C)(C)c1cc(NC(=O)N2CCCN(C(=O)CN3CCSCC3)CC2)no1` [Compound 227, 4-(2-Thiomorpholin-4-yl-acetyl)-[1,4]diazepane-1-carboxylic acid (5-tert-butyl-isoxazol-3-yl)-amide], the Emax under setting [1] is 102%. Also, the EC50 (read-out: hCB2 cAMP EC50) was found to be 9.6 nM.

As for `CC(C)(C)c1cc(NC(=O)N2CCCN(C(=O)CN3CCC(F)(F)CC3)CC2)no1` [Compound 229, 4-[2-(4,4-Difluoro-piperidin-1-yl)-acetyl]-[1,4]diazepane-1-carboxylic acid (5-tert-butyl-isoxazol-3-yl)-amide], the Emax under setting [1] was determined as 104%. Where the note is “read-out: hCB2 cAMP EC50”, the EC50 amounted to 24 nM.

`CC(C)(C)c1cc(NC(=O)N2CCCN(C(=O)C3CCC(=O)CC3)CC2)no1` [Compound 234, 4-(4-Oxo-cyclohexanecarbonyl)-[1,4]diazepane-1-carboxylic acid (5-tert-butyl-isoxazol-3-yl)-amide] had an EC50 of 33 nM. For the same compound, the Emax (CHO) was determined as 100%.

On to `CCCCc1ccc(NC(=O)N2CCCN(C(=O)CC3CCCC3)CC2)cc1` [Example 11], for which the Emax under setting [1] was 65%. The EC50 (read-out: hCB2 cAMP EC50) stood at 74 nM.

Usually EC50 stands for the concentration giving half of the maximal effect.
